Assay results published in ChEMBL document CHEMBL1201862, “PubChem BioAssay data set” (2004).
The source made the active and inactive calls.

Legend:
[1] = NIH3T3 cell viability loss – ATP luminescence, mouse fibroblasts, counter-screen, dose response (AID 2010); assay type: functional, cell-based;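 also: cells exposed to compound for about 90 hours before reading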
[2] = Trypanosoma cruzi growth suppression in host cells – NIH3T3 host cells, beta-gal luminescence, confirmation (AID 2044); assay type: functional, cell-based;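 also: intracellular parasites grown in NIH/3T3 mouse fibroblasts as host cells; luminescent beta-galactosidase reporter signal from transgenic T. cruzi replicating inside host cells; inhibitors lower the luminescence signal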
Cytochrome P450 2C19 = Cytochrome P450 2C19 (Homo sapiens, UniProt P33261); experiment: Cytochrome panel assay with activity outcomes. Panel member name: p450-cyp2c19 Compounds with AC50 equal or less than 10 uM are considered active; assay type: functional
Sequence of Cytochrome P450 2C19 (P33261 whole entry): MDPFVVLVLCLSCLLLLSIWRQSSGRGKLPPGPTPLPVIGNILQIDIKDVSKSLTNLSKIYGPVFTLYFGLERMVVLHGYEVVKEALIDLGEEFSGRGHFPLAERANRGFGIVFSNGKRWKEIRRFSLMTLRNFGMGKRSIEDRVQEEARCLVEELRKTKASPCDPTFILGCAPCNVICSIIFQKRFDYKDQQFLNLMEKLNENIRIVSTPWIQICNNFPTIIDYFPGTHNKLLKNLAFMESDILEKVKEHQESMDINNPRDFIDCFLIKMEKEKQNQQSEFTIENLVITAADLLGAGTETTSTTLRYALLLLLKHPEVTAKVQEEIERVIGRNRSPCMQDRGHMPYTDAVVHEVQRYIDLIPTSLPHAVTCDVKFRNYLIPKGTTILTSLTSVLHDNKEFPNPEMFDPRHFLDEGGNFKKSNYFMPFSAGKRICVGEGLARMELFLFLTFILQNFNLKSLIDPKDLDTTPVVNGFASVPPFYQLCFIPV

Cytochrome P450 1A2 = biological target: T1, Cytochrome P450 1A2 (Homo sapiens, UniProt P05177);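 also: PubChem cytochrome P450 panel assay, CYP1A2 panel member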
T1 sequence (P05177 whole entry): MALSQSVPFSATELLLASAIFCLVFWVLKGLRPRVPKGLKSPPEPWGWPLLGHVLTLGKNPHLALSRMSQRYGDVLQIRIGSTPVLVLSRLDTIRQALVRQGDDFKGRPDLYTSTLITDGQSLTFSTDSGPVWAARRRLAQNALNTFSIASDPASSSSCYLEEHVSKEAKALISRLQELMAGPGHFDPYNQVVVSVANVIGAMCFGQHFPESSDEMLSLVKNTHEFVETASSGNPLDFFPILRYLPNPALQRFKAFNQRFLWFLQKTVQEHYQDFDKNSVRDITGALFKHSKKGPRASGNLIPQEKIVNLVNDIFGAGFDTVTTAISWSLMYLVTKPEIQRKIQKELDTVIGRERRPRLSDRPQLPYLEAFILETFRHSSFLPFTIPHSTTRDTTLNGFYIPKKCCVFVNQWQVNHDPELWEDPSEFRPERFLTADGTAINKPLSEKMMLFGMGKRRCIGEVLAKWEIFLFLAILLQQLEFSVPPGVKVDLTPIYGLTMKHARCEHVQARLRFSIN

Cytochrome P450 2D6 = Cytochrome P450 2D6 (Homo sapiens, UniProt P10635);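 also: CYP2D6 member of a cytochrome P450 panel assay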
Sequence of Cytochrome P450 2D6 (P10635 whole entry): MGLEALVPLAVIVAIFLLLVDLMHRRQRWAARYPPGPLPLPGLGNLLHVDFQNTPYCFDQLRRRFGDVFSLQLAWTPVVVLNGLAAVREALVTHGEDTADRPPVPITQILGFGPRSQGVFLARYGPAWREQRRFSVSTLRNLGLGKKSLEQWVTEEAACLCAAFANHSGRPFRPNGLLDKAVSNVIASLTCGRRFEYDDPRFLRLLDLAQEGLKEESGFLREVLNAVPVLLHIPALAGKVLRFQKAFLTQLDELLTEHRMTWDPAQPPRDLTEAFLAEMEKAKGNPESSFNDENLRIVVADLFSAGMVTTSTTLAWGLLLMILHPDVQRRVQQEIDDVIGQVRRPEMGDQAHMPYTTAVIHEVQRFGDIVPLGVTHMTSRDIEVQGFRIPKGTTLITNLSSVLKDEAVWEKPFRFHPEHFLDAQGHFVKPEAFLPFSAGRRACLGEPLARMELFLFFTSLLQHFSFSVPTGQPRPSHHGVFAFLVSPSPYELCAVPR

Protein RecA = biological target: T2, Protein RecA (Mycobacterium tuberculosis, UniProt P9WHJ3); experiment: Fluorescence Cell-Free Homogeneous Dose Retest to Identify Inhibitors of RecA-Intein Splicing Activity. [Related pubchem assays (depositor defined):AID2097, AID2223, AID489010, AID492950]; assay type: functional
T2 sequence (P9WHJ3 whole entry): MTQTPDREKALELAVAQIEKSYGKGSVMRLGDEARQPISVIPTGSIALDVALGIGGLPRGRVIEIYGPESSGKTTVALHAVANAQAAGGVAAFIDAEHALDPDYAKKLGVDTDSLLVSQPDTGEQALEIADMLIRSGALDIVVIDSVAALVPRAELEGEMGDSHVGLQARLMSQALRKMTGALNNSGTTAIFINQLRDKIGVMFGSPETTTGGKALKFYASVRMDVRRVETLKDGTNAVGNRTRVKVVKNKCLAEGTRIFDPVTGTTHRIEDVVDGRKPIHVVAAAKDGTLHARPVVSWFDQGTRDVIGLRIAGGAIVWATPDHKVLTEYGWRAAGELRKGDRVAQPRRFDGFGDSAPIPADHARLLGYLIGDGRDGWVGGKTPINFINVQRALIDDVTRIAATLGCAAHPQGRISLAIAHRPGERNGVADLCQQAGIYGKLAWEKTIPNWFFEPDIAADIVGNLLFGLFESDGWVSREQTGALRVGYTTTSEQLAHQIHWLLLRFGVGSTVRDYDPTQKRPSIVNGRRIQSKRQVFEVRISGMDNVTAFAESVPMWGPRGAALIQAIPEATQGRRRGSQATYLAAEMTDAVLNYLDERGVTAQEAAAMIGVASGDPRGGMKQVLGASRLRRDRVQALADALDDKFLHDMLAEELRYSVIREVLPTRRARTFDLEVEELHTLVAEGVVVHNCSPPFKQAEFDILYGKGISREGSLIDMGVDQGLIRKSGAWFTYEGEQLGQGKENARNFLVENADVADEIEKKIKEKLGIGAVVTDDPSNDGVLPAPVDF

H4 = experiment: Luminescence Cell-Based Dose Response HTS to Identify Activators of 5'UTR Stem-Loop Driven Prion Protein mRNA Translation in H4 Neuroglioblastoma Cells. [Related pubchem assays: 1829 (Project Summary), 1814 (Primary HTS)]; assay type: functional; conditions: Homo sapiens
[3] = Luminescence Cell-Based Dose Response HTS to Identify Activators of Luciferase Translation or Activity in H4 […] Cells. [Related pubchem assays: 1829 (Project Summary), 1814 (Primary HTS)]; assay type: functional
Streptococcus = experiment: GAS UMAA2166 growth inhibition – luminescence, BacTiterGlo, counter-screen for streptokinase expression inhibitor project, dose response (AID 1915); assay type: functional, organism-based;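 also: potency for reduction of bacterial viability or growth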
[4] = system: Streptococcus sp. 'group A'; experiment: Streptococcus pyogenes SK(-)GAS viability under kanamycin – luminescence, BacTiterGlo, confirmation, counter-screen for streptokinase expression inhibitor project, dose response (AID 1900); assay type: functional, organism-based
Streptokinase A = biological target: T3, Streptokinase A (Streptococcus pyogenes serotype M1, UniProt P10520); experiment: viability-normalized secreted streptokinase activity reduction – plasminogen activation absorbance, OD405, dose response (AID 1914); assay type: functional, Streptococcus pyogenes M1 GAS;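 also: secreted streptokinase activity via plasminogen activation per viability signal from cell pellet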
T3 sequence (P10520 whole entry): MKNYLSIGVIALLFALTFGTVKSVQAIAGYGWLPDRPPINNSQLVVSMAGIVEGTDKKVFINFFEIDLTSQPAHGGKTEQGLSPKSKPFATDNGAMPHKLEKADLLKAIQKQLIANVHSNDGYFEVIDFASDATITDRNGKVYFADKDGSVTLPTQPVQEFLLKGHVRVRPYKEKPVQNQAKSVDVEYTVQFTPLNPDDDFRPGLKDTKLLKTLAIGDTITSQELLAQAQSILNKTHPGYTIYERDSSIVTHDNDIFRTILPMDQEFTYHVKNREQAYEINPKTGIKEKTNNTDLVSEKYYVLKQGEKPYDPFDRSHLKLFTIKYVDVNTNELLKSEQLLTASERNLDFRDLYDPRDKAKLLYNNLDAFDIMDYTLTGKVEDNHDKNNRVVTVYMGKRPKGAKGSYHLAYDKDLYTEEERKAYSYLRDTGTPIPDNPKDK

Cytochrome P450 3A4 = Cytochrome P450 3A4 (Homo sapiens, UniProt P08684);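 also: CYP3A4 tested as one member of a cytochrome P450 panel screen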
Sequence of Cytochrome P450 3A4 (P08684 whole entry): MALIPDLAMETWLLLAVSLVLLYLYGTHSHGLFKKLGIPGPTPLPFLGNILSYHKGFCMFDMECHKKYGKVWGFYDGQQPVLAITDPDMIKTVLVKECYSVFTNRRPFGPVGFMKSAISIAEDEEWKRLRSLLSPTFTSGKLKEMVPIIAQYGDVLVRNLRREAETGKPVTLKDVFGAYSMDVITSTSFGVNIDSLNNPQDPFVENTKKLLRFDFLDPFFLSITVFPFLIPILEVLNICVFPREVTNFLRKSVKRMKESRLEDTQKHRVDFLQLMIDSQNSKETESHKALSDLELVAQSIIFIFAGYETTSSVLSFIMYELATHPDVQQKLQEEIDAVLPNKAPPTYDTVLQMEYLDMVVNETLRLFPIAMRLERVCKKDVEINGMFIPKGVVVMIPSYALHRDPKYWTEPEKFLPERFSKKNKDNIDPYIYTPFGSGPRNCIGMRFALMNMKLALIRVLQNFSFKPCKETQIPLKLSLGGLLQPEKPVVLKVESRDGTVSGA

Cc1nn2c(O)c3c(nc2c1-c1ccc(F)cc1)CCCC3
EC50 [1]: 10.1 µM (active) | EC50 [2]: 0.451 µM (active)

COCCn1c(=O)c(C)nc2cnc(Oc3cccc(Cl)c3)nc21
AC50 (Cytochrome P450 2C19; read-out: AC50): 20 µM (inconclusive)

N[C@H](Cc1ccc(Cl)cc1)C(=O)O
AC50 (Cytochrome P450 1A2): 2 µM (inconclusive)

O=C(/C=C\c1ccccc1)c1ccccc1O
AC50 (Cytochrome P450 2C19; read-out: AC50): 3.98 µM (inconclusive)

Cc1ccccc1-c1nc(NCc2cccnc2)c2ccccc2n1
AC50 (Cytochrome P450 2D6): 39.8 µM (inconclusive) | AC50 (Cytochrome P450 2C19; read-out: AC50): 15.8 µM (inconclusive)

CCO/C=C1/C(=O)N(Cc2ccccc2)C(=O)c2ccccc21
EC50 (Protein RecA): > 380 µM (inactive)

O=C1[C@H]2[C@@H](c3ccc(Cl)cc3)N3C(=O)N(c4cccc(Br)c4)C(=O)[C@@]3(Cc3ccc(Cl)cc3)[C@H]2C(=O)N1C1CCCCC1
EC50 [1]: > 60 µM (not active) | EC50 [2]: 1.24 µM (active)

Cn1c(=O)c2nc(CCCCC(=O)O)[nH]c2n(C)c1=O
AC50 (Cytochrome P450 2C19): inconclusive | AC50 (Cytochrome P450 1A2): 0.794 µM (inconclusive)

CC1=CC(=O)C2=C(C)C[C@@H](O)[C@@H]3[C@@H](OC(=O)[C@H]3C)[C@H]12
AC50 (Cytochrome P450 1A2): 25.1 µM (inconclusive)

Cc1cccc(C(=O)OC(C)CN2CCN(C)CC2)c1 (stereo not drawn)
EC50 [1]: > 30 µM (not active) | EC50 [2]: 0.994 µM (active)

O=C(Nc1nnc(C2CC2)s1)c1cc(S(=O)(=O)N2CCN(c3ccccc3)CC2)ccc1Cl
AC50 (Cytochrome P450 1A2): 11.2 µM (inconclusive)

O=C(Nc1cc(S(=O)(=O)N2CCOCC2)ccc1-n1cncn1)c1ccc(Cl)cc1
EC50 [1]: > 60 µM (not active) | EC50 [2]: 2.54 µM (active)

COc1ccc2c(c1)C1=NN(/C(C)=C\C(C)=O)C(c3ccccc3)C1CC2 (stereo not drawn)
EC50 (H4): 7.74 µM (active) | EC50 [3]: 24.7 µM (active)

COc1ccc(/C=C/C(=O)c2c(C)nc3ccccn23)cc1
EC50 (H4): > 120 µM (not active) | EC50 [3]: 0.225 µM (active)

O=S(=O)(c1ccc(F)cc1)c1nc(-c2ccccc2)oc1N1CCOCC1
EC50 (Streptococcus): > 150 µM (not active) | EC50 [4]: > 150 µM (not active) | EC50 (Streptokinase A): > 150 µM (not active)

O=C(/C=C/c1c(F)cccc1Cl)Nc1ncccn1
EC50 (H4): 7.88 µM (active) | EC50 [3]: 0.974 µM (active)

COc1ccc(-n2nc([N+](=O)[O-])c(NCCc3ccc(Cl)cc3)[n+]2[O-])cc1
EC50 [1]: > 60 µM (not active) | EC50 [2]: 0.602 µM (active)

COc1ccccc1CN1CCN(Cc2ccc(Cl)cc2)CC1
EC50 [1]: > 60 µM (not active) | EC50 [2]: 0.439 µM (active)

COc1ccc(-n2c(=O)c(C)nc3cnc(OC)nc32)cc1
AC50 (Cytochrome P450 3A4): 25.1 µM (inconclusive) | AC50 (Cytochrome P450 2C19; read-out: AC50): 39.8 µM (inconclusive)

CC1(C)CC(c2nc(-c3ccc(Cl)cc3)cs2)CCS1 (stereo not drawn)
EC50 (Streptococcus): > 150 µM (not active) | EC50 [4]: 9.13 µM (active) | EC50 (Streptokinase A): 13.9 µM (active)

COc1ccc([N+](=O)[O-])cc1NC(=S)NC(NC(=O)C(c1ccccc1)c1ccccc1)C(Cl)(Cl)Cl (stereo not drawn)
EC50 (Streptokinase A): > 150 µM (not active)

CN(C)c1ccc(-c2nc(NCc3cccnc3)c3ccccc3n2)cc1
AC50 (Cytochrome P450 2C19; read-out: AC50): 10 µM (inconclusive)

CCOc1ccc2nc(N(CCN(CC)CC)C(=O)c3ccc([N+](=O)[O-])cc3)sc2c1
EC50 [1]: > 60 µM (not active) | EC50 [2]: 0.184 µM (active)

O=C(c1cccc(F)c1)N1CCC2(CCCN(c3cccc(-c4ccccc4)c3)C2)CC1
AC50 (Cytochrome P450 1A2): 15.8 µM (inconclusive)

CS(=O)(=O)N1CCC2(CCCN(C(c3ccccc3)c3ccccc3)C2)CC1
AC50 (Cytochrome P450 2C19; read-out: AC50): 20 µM (inconclusive)

COc1ccccc1NC(=O)C1=C(C)Nc2nc(-c3ccc(N(C)C)cc3)nn2C1c1ccncc1 (stereo not drawn)
AC50 (Cytochrome P450 1A2): 12.6 µM (inconclusive)

CCOC(=O)c1nnn(-c2nonc2-n2cccc2)c1CN1CCC(C)CC1
EC50 (Streptococcus): > 150 µM (not active) | EC50 [4]: 9.92 µM (active) | EC50 (Streptokinase A): 14.9 µM (active)

O=C(c1cnc(N2CCN(c3ncccn3)CC2)c2ccccc12)N1CCN(c2ncccn2)CC1
AC50 (Cytochrome P450 3A4): 39.8 µM (inconclusive) | AC50 (Cytochrome P450 2D6): 11.2 µM (inconclusive)

Cc1ccc(C(CC(=O)c2ccco2)SCCO)cc1 (stereo not drawn)
AC50 (Cytochrome P450 1A2): 25.1 µM (inconclusive)

O=S(=O)(NCC(c1cccnc1)N1CCN(c2ccccc2)CC1)c1cc(F)ccc1F (stereo not drawn)
EC50 [1]: > 60 µM (not active) | EC50 [2]: 0.508 µM (active)

CCOc1ccc(NC(=O)CSc2nnc(Cc3ccccc3)c(=O)n2N)cc1
EC50 (Streptococcus): > 150 µM (not active) | EC50 [4]: > 150 µM (not active) | EC50 (Streptokinase A): > 150 µM (not active)

Cc1ccc(CCN2CC(C(=O)NCCN3CCCCCC3)CC2=O)cc1 (stereo not drawn)
AC50 (Cytochrome P450 3A4): 35.5 µM (inconclusive) | AC50 (Cytochrome P450 2D6): 20 µM (inconclusive) | AC50 (Cytochrome P450 2C19): inconclusive

CCn1c(C(=O)NCc2cccnc2)cc2sc(Cl)cc21
EC50 [1]: > 60 µM (not active) | EC50 [2]: 1.12 µM (active)

O=C(/C=C/c1ccccc1)N/C(=C/c1ccccc1)C(=O)Nc1ccccc1O
AC50 (Cytochrome P450 2D6): 22.4 µM (inconclusive) | AC50 (Cytochrome P450 2C19; read-out: AC50): 17.8 µM (inconclusive)

CC(C)(C)c1cc2cccnc2n1Cc1cccc(F)c1
AC50 (Cytochrome P450 3A4): 15.8 µM (inconclusive) | AC50 (Cytochrome P450 2C19; read-out: AC50): 11.2 µM (inconclusive) | AC50 (Cytochrome P450 1A2): 12.6 µM (inconclusive)

COc1cccc(Nc2c3c(nc4c(-c5ccccc5)c(C)nn24)CCC3)c1
EC50 (Streptococcus): > 150 µM (not active) | EC50 [4]: 15 µM (active) | EC50 (Streptokinase A): 8.91 µM (active)

Cc1ccc(Sc2nc(C)cc(C)c2S(C)(=O)=O)cc1
AC50 (Cytochrome P450 3A4): 14.1 µM (inconclusive) | AC50 (Cytochrome P450 2D6): 17.8 µM (inconclusive)

Cc1ccc2[nH]c(SCC(=O)Nc3nnc(SCC(N)=O)s3)nc2c1
AC50 (Cytochrome P450 3A4): 22.4 µM (inconclusive) | AC50 (Cytochrome P450 2C19; read-out: AC50): 22.4 µM (inconclusive)

CCCSc1nc(C)cc(C)c1C(N)=O
AC50 (Cytochrome P450 1A2): 28.2 µM (inconclusive)

O=S(=O)(O)c1ccc(O)c2ncccc12
AC50 (Cytochrome P450 1A2): 0.631 µM (inconclusive)

O=C(O)CCC(=O)N1CCC[C@H]1C(=O)O
AC50 (Cytochrome P450 2C19): inconclusive

O=[N+]([O-])c1cc(/C=N/O)ccc1SCc1ccccc1
AC50 (Cytochrome P450 3A4): 11.2 µM (inconclusive) | AC50 (Cytochrome P450 2C19; read-out: AC50): 6.31 µM (inconclusive)

COc1ccc2c(c1)N(C[C@@H](C)CN(C)C)c1ccccc1S2 [DEXTROMEPROMAZINE]
AC50 (Cytochrome P450 3A4): 7.94 µM (inconclusive) | AC50 (Cytochrome P450 1A2): 15.8 µM (inconclusive)
